pIC50: −log10 of the molar value.
test system: plasma ALP (80-90% containing TNAP); experiment: Inhibitory test of plasma TNAP activity in B6 mouse; format: in vivo; conditions: 0.3 mg/kg orally in 0.5% methylcellulose, average inhibition from 0 hour to 6 hours after administration, activity before administration = 100%
Procedure: (Test Example 3) Inhibitory Test of Plasma TNAP Activity in B6 Mouse (Charles River Laboratories Japan, Inc.)
After blood sampling from the tail vein using a heparin-treated hematocrit capillary tube (EM Meister Hematocrit Capillary Tube, AS ONE Corp.) (as the sample before compound administration), each test compound suspended in a 0.5% methylcellulose solution (powder purchased from Wako Pure Chemical Industries, Ltd. was adjusted to 0.5% with Otsuka distilled water) was administered orally to the mouse (0.3 mg/kg). 1, 2, 4, 6, and 24 hours after the administration, blood was collected from the tail vein using a heparin-treated hematocrit capillary tube to obtain a plasma sample. The plasma sample was added to an assay buffer (1 M Tris, 1 M MgCl2, 20 mM ZnCl2, and water, pH 7.5), and the mixture was left standing for 5 minutes. Then, the absorbance at 405 nm was measured and used as a blank. The substrate pNPP was added to the plasma sample and incubated at room temperature for 180 minutes. Then, the absorbance (ABS: 405 nm) was measured using a microplate reader (model plus 384, Molecular Devices, LLC), and the concentration of produced p-nitrophenol was calculated. The blank was subtracted from all measurement values to calculate TNAP activity at each time point with the TNAP activity of the sample before compound administration defined as 100%.
It was calculated according to the following expression: 100−((plasma ALP activity at 0 hr+plasma ALP activity at 1 hr)*1/2+(plasma ALP activity at 1 hr+plasma ALP activity at 2 hr)*1/2+(plasma ALP activity at 2 hr+plasma ALP activity at 4 hr)*2/2+(plasma ALP activity at 4 hr+plasma ALP activity at 6 hr)*2/2)/6.

SMILES | Plasma ALP Inhibition (6 h ave. inhibition %) [%]
Cc1cncc(S(=O)(=O)Nc2c(F)cc(Cl)cc2-c2ccc(CCC(=O)O)cc2)c1 [Example 4, 3-{5′-Chloro-3′-fluoro-2′-[(5-methylpyridine-3-sulfonyl)amino][1,1′-biphenyl]-4-yl}propanoic acid] | 80.2
CCc1cncc(S(=O)(=O)Nc2c(F)cc(Cl)cc2-c2ccc(OC(C)(C)C(=O)O)cc2)c1 [Example 7, 2-({5′-Chloro-2′-[(5-ethylpyridine-3-sulfonyl)amino]-3′-fluoro[1,1′-biphenyl]-4-yl}oxy)-2-methylpropanoic acid] | 69.0
CC(C)Oc1cncc(S(=O)(=O)Nc2c(F)cc(Cl)cc2-c2ccc(CCC(=O)O)cc2)c1 [Example 30, 3-[5′-Chloro-3′-fluoro-2′-({5-[(propan-2-yl)oxy]pyridine-3-sulfonyl}amino)[1,1′-biphenyl]-4-yl]propanoic acid] | 69.9
Cc1cncc(S(=O)(=O)Nc2c(F)cc(Cl)cc2-c2ccc(OC(C)(C)C(=O)O)cc2)c1C [Example 8, 2-({5′-Chloro-2′-[(4,5-dimethylpyridine-3-sulfonyl)amino]-3′-fluoro[1,1′-biphenyl]-4-yl}oxy)-2-methylpropanoic acid] | 76.2

molecular target: T1, human TNAP (Homo sapiens, UniProt P05186); experiment: Inhibitory test of TNAP activity (pNPP substrate, p-nitrophenol production); format: biochemical; conditions: human TNAP from culture supernatant of transfected COS1 cells, 60 minutes at room temperature, ABS 405 nm
T1 construct: host or cells: COS1 cells, concentrated and dialyzed culture supernatant
T1 sequence (P05186 18-502 limits assumed): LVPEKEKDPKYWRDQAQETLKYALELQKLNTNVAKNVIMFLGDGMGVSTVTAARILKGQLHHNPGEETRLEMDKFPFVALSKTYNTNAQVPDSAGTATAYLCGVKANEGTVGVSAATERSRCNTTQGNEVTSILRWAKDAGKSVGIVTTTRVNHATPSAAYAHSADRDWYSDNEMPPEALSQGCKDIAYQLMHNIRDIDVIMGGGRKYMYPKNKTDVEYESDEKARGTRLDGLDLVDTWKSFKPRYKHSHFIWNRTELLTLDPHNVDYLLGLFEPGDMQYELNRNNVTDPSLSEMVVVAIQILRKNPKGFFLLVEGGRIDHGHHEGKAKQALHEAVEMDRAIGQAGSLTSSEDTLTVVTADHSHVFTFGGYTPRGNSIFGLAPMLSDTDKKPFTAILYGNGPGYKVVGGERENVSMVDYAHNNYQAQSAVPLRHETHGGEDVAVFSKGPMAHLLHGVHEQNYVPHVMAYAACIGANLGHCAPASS
Procedure: <Test Examples> (Test Example 1) Inhibitory Test of TNAP Activity
COS1 cells (DS Pharma Biomedical Co., Ltd.) were transfected with human TNAP (OriGene Technologies, Inc.) using Lipofectamine LTX & Plus reagent (Invitrogen Corp.). On the next day, the medium was replaced with a fresh medium, and the cells were cultured in an incubator for 3 days. After 3 days, the culture supernatant was collected and concentrated by centrifugation at 5000 G for 30 minutes using Amicon 14, 10^4 cut (Merck Millipore). The concentrated culture supernatant was dialyzed against 5 L of 50 mM Tris/200 mM NaCl/1 mM MgCl2/20 μM ZnCl2 twice and used as an enzyme source (enzyme solution). The substrate pNPP (ProteoChem Inc.) was adjusted to 3.1 mM with Milli-Q water, and a solution of each test compound dissolved in dimethyl sulfoxide (DMSO; Wako Pure Chemical Industries, Ltd.) by 6 serial dilutions at a 5-fold common ratio from 100 μM or DMSO was added thereto at a final concentration of 1% by volume. The enzyme solution adjusted to 2 μg/mL with an assay buffer (200 mM Tris/2 mM MgCl2/0.04 mM ZnCl2/0.01% Tween 20) was added in the same amount of the substrate solution and incubated at room temperature for 60 minutes. Then, the absorbance (ABS: 405 nm) was measured using a microplate reader (model plus 384, Molecular Devices, LLC), and the concentration of produced p-nitrophenol was calculated.

SMILES | pIC50
CC(Oc1ccc(-c2cc(Cl)cc(Cl)c2NS(=O)(=O)c2cccnc2)cc1)C(=O)O (stereo not drawn) [Example 13, 2-({3′,5′-Dichloro-2′-[(pyridine-3-sulfonyl)amino][1,1′-biphenyl]-4-yl}oxy)propanoic acid] | 8.46
COc1cncc(S(=O)(=O)Nc2c(Cl)cc(Cl)cc2-c2ccc(S(C)(=O)=O)c(F)c2)c1 [Example 21, N-[3,5-Dichloro-3′-fluoro-4′-(methanesulfonyl)[1,1′-biphenyl]-2-yl]-5-methoxypyridine-3-sulfonamide] | 8.92
O=C(O)COc1ccc(-c2cc(Cl)cc(Cl)c2NS(=O)(=O)c2cccnc2)cc1 [Example 1, ({3′,5′-Dichloro-2′-[(pyridine-3-sulfonyl)amino][1,1′-biphenyl]-4-yl}oxy)acetic acid] | 8.26
Cc1cncc(S(=O)(=O)Nc2c(F)cc(Cl)cc2-c2ccc(OC(C)(C)C(=O)O)c(F)c2)c1 [Example 27, 2-({5′-Chloro-3,3′-difluoro-2′-[(5-methylpyridine-3-sulfonyl)amino][1,1′-biphenyl]-4-yl}oxy)-2-methylpropanoic acid] | 9.17
CC(C)(Oc1ccc(-c2cc(Cl)cc(Cl)c2NS(=O)(=O)c2cccnc2)cc1)C(=O)O [Example 14, 2-({3′,5′-Dichloro-2′-[(pyridine-3-sulfonyl)amino][1,1′-biphenyl]-4-yl}oxy)-2-methylpropanoic acid] | 8.59
Cc1cncc(S(=O)(=O)Nc2c(F)cc(Cl)cc2-c2ccc(OCC(=O)O)cc2)c1 [Example 17, ({5′-Chloro-3′-fluoro-2′-[(5-methylpyridine-3-sulfonyl)amino][1,1′-biphenyl]-4-yl}oxy)acetic acid] | 9.52
O=C(O)COc1ccc(-c2cc(Cl)cc(F)c2NS(=O)(=O)c2cccnc2)cc1 [Example 16, ({5′-Chloro-3′-fluoro-2′-[(pyridine-3-sulfonyl)amino][1,1′-biphenyl]-4-yl}oxy)acetic acid] | 8.62
COc1cncc(S(=O)(=O)Nc2c(Cl)cc(Cl)cc2-c2ccc(OC(C)C(=O)O)cc2)c1 (stereo not drawn) [Example 19, 2-({3′,5′-Dichloro-2′-[(5-methoxypyridine-3-sulfonyl)amino][1,1′-biphenyl]-4-yl}oxy)propanoic acid] | 9.31
COc1ccncc1S(=O)(=O)Nc1c(F)cc(Cl)cc1-c1ccc(OC(C)(C)C(=O)O)cc1 [Example 25, 2-({5′-Chloro-3′-fluoro-2′-[(4-methoxypyridine-3-sulfonyl)amino][1,1′-biphenyl]-4-yl}oxy)-2-methylpropanoic acid] | 9.39
Cc1cncc(S(=O)(=O)Nc2c(Cl)cc(Cl)cc2-c2ccc(OCC(=O)O)cc2)c1 [Example 15, ({3′,5′-Dichloro-2′-[(5-methylpyridine-3-sulfonyl)amino][1,1′-biphenyl]-4-yl}oxy)acetic acid] | 9.05
Cc1ncncc1S(=O)(=O)Nc1c(F)cc(Cl)cc1-c1ccc(OC(C)(C)C(=O)O)cc1 [Example 23, 2-({5′-Chloro-3′-fluoro-2′-[(4-methylpyrimidine-5-sulfonyl)amino][1,1′-biphenyl]-4-yl}oxy)-2-methylpropanoic acid] | 8.62
Cc1cncc(S(=O)(=O)Nc2c(Cl)cc(Cl)cc2-c2ccc(OC(C)(C)C(=O)O)cc2)c1 [Example 2, 2-({3′,5′-Dichloro-2′-[(5-methylpyridine-3-sulfonyl)amino][1,1′-biphenyl]-4-yl}oxy)-2-methylpropanoic acid] | 9.30
CC(C)(Oc1ccc(-c2cc(Cl)cc(F)c2NS(=O)(=O)c2cncc(S(C)(=O)=O)c2)cc1)C(=O)O [Example 28, 2-[(5′-Chloro-3′-fluoro-2′-{[5-(methanesulfonyl)pyridine-3-sulfonyl]amino}[1,1′-biphenyl]-4-yl)oxy]-2-methylpropanoic acid] | 8.59
COc1cncc(S(=O)(=O)Nc2c(Cl)cc(Cl)cc2-c2ccc(C(F)(F)C(=O)O)cc2)c1 [Example 20, {3′,5′-Dichloro-2′-[(5-methoxypyridine-3-sulfonyl)amino][1,1′-biphenyl]-4-yl}(difluoro)acetic acid] | 9.44

Results, then the compound that gave them:

pIC50 | SMILES
9.55 | COc1cncc(S(=O)(=O)Nc2c(Cl)cc(Cl)cc2-c2ccc(CC(=O)O)cc2)c1 [Example 22, {3′,5′-Dichloro-2′-[(5-methoxypyridine-3-sulfonyl)amino][1,1′-biphenyl]-4-yl}acetic acid]
9.82 | CCc1cncc(S(=O)(=O)Nc2c(F)cc(Cl)cc2-c2ccc(OC(C)(C)C(=O)O)cc2)c1 [Example 7, 2-({5′-Chloro-2′-[(5-ethylpyridine-3-sulfonyl)amino]-3′-fluoro[1,1′-biphenyl]-4-yl}oxy)-2-methylpropanoic acid]
9.72 | CC(C)Oc1cncc(S(=O)(=O)Nc2c(F)cc(Cl)cc2-c2ccc(OC(C)(C)C(=O)O)cc2)c1 [Example 26, 2-{[5′-Chloro-3′-fluoro-2′-({5-[(propan-2-yl)oxy]pyridine-3-sulfonyl}amino)[1,1′-biphenyl]-4-yl]oxy}-2-methylpropanoic acid]
9.62 | CC(C)Oc1cncc(S(=O)(=O)Nc2c(F)cc(Cl)cc2-c2ccc(CCC(=O)O)cc2)c1 [Example 30, 3-[5′-Chloro-3′-fluoro-2′-({5-[(propan-2-yl)oxy]pyridine-3-sulfonyl}amino)[1,1′-biphenyl]-4-yl]propanoic acid]
9.82 | Cc1cncc(S(=O)(=O)Nc2c(F)cc(Cl)cc2-c2ccc(OC(C)(C)C(=O)O)cc2)c1C [Example 8, 2-({5′-Chloro-2′-[(4,5-dimethylpyridine-3-sulfonyl)amino]-3′-fluoro[1,1′-biphenyl]-4-yl}oxy)-2-methylpropanoic acid]
9.64 | COc1cncc(S(=O)(=O)Nc2c(F)cc(Cl)cc2-c2ccc(OC(C)(C)C(=O)O)cc2)c1 [Example 18, 2-({5′-Chloro-3′-fluoro-2′-[(5-methoxypyridine-3-sulfonyl)amino][1,1′-biphenyl]-4-yl}oxy)-2-methylpropanoic acid]
9.70 | CCc1ccncc1S(=O)(=O)Nc1c(F)cc(Cl)cc1-c1ccc(OC(C)(C)C(=O)O)cc1 [Example 24, 2-({5′-Chloro-2′-[(4-ethylpyridine-3-sulfonyl)amino]-3′-fluoro[1,1′-biphenyl]-4-yl}oxy)-2-methylpropanoic acid]
9.85 | CCC(C(=O)O)c1ccc(-c2cc(Cl)cc(F)c2NS(=O)(=O)c2cncc(C)c2)cc1 (stereo not drawn) [Example 33, 2-{5′-Chloro-3′-fluoro-2′-[(5-methylpyridine-3-sulfonyl)amino][1,1′-biphenyl]-4-yl}butanoic acid]
9.77 | Cc1cncc(S(=O)(=O)Nc2c(F)cc(Cl)cc2-c2ccc(C(C)C(=O)O)cc2)c1 (racemic) [Example 32, 2-{5′-Chloro-3′-fluoro-2′-[(5-methylpyridine-3-sulfonyl)amino][1,1′-biphenyl]-4-yl}propanoic acid]

— patent US11932600B2, “Biaryl derivative” (DAIICHI SANKYO COMPANY, LIMITED, priority 2018, dated 2024)
